In US12090225B2 (Avalyn Pharma Inc., priority 2018, dated 2024):
In brackets after ≈: the same amount, converted by molar mass. Read-outs that look alike come from different tables or passages of the source.

Experiments:
[1] = Feasibility assessment of ready-to-use nintedanib HBr, HCl and esylate formulations; type: physicochemical; details: NaCl at 30 mM or higher concentrations
[2] = Inhaled pharmacokinetics of nintedanib salt forms (intratracheal); type: in vivo, C57BL/6 mice; details: 1 mg/kg (base equivalent) IT, mice; listed as nintedanib hydrobromide
[3] = Solvent solubility screen; type: physicochemical; details: thermodynamic from solid, read-out: Approximate Solubility
Protocol: Between each addition, the mixture was checked for dissolution and where no dissolution was apparent, the mixture was heated to ca. 40° C. and checked again. Samples where the material dissolved, were left to evaporate. Any solids produced from evaporation samples were analyzed by XRPD in order to assess the polymorphic form.
The solvent systems used during the solvent solubility screen, together with the corresponding ICH Class, are detailed in Table 4.

## COC(=O)c1ccc2c(c1)NC(=O)/C2=C(\Nc1ccc(N(C)C(=O)CN2CCN(C)CC2)cc1)c1ccccc1 [Nintedanib HBr]
[1]
  compatibility with NaCl: Neither Nintedanib HBr nor Nintedanib HCl is compatible
[2]
  lung half-life: about 4 minutes

## COC(=O)c1ccc2c(c1)NC(=O)/C2=C(\Nc1ccc(N(C)C(=O)CN2CCN(C)CC2)cc1)c1ccccc1 [Nintedanib, methyl (3Z)-3-[[4-[methyl-[2-(4-methylpiperazin-1-yl)acetyl]amino]anilino]-phenylmethylidene]-2-oxo-1H-indole-6-carboxylate]
[3]; 1-butanol, 40 °C, organic solvent or mixture
  solubility: < 10000 µg/mL
[3]; 1-propanol, 40 °C, organic solvent or mixture
  solubility: < 10000 µg/mL
[3]; 2-propanol, 40 °C, organic solvent or mixture
  solubility: < 11000 µg/mL
[3]; 40 °C, aqueous with cosolvent or surfactant or cyclodextrin, 40% Methanol: 60% Water (% v/v)
  solubility: < 10000 µg/mL
[3]; 50% 2-propanol: 50% water (% v/v), 40 °C, aqueous with cosolvent or surfactant or cyclodextrin
  solubility: < 10000 µg/mL
[3]; N,N′-dimethylacetamide, organic solvent or mixture
  solubility: 26000 µg/mL (≈ 48.2 mM)
[3]; THF, 40 °C, organic solvent or mixture
  solubility: < 10000 µg/mL
[3]; acetone, 40 °C, organic solvent or mixture
  solubility: < 10000 µg/mL
[3]; acetonitrile, 40 °C, organic solvent or mixture
  solubility: < 10000 µg/mL
[3]; anisole, 40 °C, organic solvent or mixture
  solubility: < 10000 µg/mL
[3]; dichloromethane, organic solvent or mixture
  solubility: 17000 µg/mL (≈ 31.5 mM)
[3]; dimethylsulfoxide, 40 °C, organic solvent or mixture
  solubility: < 10000 µg/mL
[3]; ethanol, 40 °C, organic solvent or mixture
  solubility: < 10000 µg/mL
[3]; ethyl acetate, 40 °C, organic solvent or mixture
  solubility: < 10000 µg/mL
[3]; ethyl ether, 40 °C, organic solvent or mixture
  solubility: < 10000 µg/mL
[3]; heptane, 40 °C, organic solvent or mixture
  solubility: < 10000 µg/mL
[3]; isopropyl acetate, 40 °C, organic solvent or mixture
  solubility: < 10000 µg/mL
[3]; methanol, 40 °C, organic solvent or mixture
  solubility: < 11000 µg/mL
[3]; methylethyl ketone, 40 °C, organic solvent or mixture
  solubility: < 10000 µg/mL
[3]; methylisobutyl ketone, 40 °C, organic solvent or mixture
  solubility: < 10000 µg/mL
[3]; n-hexane, 40 °C, organic solvent or mixture
  solubility: < 10000 µg/mL
[3]; tert-butylmethyl ether, 40 °C, organic solvent or mixture
  solubility: < 11000 µg/mL
[3]; toluene, 40 °C, organic solvent or mixture
  solubility: < 10000 µg/mL
[3]; water, 40 °C, water
  solubility: < 10000 µg/mL
